Reference: patent publication US20220009920A1 (GB005, Inc., priority 2020, published 2022)

Key:
BTK in RAMOS B cells = experiment: Assay to determine BTK activity in RAMOS B cells (anti-IgM, FLIPR Calcium 6); type: cell-based; details: anti-IgM EC80, calcium readout
288 kinases = experiment: Large panel kinase profiling, overall selectivity; type: biochemical; details: 1 μM test article, 1 mM ATP
Procedure: Large panel kinase profiling was performed at AssayQuant Technologies, Inc. 260 Cedar Hill Street, Marlborough, Mass. 01752 using the PhosphoSens® CSox-Sensor platform using 1 μM test article concentration and 1 mM ATP concentration (www.assayquant.com). Reactions were run in Corning, half-area 96-well, white flat round bottom polystyrene NBS microplates (Cat. #3642) after sealing using optically-clear adhesive film (TopSealA-Plus plate seal, PerkinElmer), applied with either a roller or a paddle to eliminate evaporation and resulting drift. The standard total reaction volume was 50 μL. All experiments were ran at 30° C. to control for fluctuations in ambient temperature. Plates were read from the top in kinetic mode (readings taken every 1 min), monitoring fluorescence intensity with filters using Ex 360 nm and Em 485 nm and a band width of 40 and 20 nm, respectively, and a gain of 80. Data analysis was performed using either Graphpad Prism or Gene Data Screener software.

ABL1 = ABL1 (Homo sapiens, UniProt P00519); experiment: Large panel kinase profiling; type: biochemical; details: 1 μM test article, 1 mM ATP
In short: (§1)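 Continuous-read kinase assay: chelation-sensor peptide, 1 mM ATP, compound at 1 μM. Plates kept at 30° C.; fluorescence sampled at 1-min intervals (360/485 nm).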

CAMK1G = CAMK1G (Homo sapiens, UniProt Q96NX5); experiment: Large panel kinase profiling; type: biochemical; details: 1 μM test article, 1 mM ATP
In short: as §1

LATS2 = biological target: T1, LATS2 (Homo sapiens, UniProt Q9NRM7); experiment: Large panel kinase profiling; type: biochemical; details: 1 μM test article, 1 mM ATP
T1 sequence (Q9NRM7 1-1088): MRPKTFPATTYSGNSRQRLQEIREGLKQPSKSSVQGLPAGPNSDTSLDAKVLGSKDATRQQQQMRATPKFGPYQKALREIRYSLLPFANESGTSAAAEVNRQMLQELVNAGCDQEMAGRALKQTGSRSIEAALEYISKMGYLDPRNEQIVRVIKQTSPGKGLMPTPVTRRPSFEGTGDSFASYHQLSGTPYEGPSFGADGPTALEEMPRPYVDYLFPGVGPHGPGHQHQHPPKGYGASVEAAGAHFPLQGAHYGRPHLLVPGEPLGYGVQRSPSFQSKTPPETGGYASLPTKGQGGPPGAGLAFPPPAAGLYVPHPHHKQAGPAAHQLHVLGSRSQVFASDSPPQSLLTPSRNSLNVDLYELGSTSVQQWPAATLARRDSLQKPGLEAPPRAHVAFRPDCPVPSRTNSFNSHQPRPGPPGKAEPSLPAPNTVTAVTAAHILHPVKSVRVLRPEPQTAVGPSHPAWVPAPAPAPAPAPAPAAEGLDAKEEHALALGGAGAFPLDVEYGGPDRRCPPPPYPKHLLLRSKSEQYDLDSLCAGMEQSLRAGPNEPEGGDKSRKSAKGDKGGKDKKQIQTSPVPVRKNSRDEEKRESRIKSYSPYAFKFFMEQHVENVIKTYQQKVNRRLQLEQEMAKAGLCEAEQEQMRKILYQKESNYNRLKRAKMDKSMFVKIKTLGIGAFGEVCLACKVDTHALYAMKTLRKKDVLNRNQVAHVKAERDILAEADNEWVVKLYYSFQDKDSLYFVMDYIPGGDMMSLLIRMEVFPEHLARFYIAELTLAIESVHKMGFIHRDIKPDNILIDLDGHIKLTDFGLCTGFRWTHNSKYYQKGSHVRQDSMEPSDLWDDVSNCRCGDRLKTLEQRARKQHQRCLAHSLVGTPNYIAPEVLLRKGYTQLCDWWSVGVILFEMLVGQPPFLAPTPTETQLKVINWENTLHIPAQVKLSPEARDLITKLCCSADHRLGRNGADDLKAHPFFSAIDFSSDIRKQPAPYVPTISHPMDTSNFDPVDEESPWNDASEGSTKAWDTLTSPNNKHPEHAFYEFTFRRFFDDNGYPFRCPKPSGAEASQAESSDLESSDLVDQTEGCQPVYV
In short: as §1

MAP4K1/HPK1 = biological target: T2, MAP4K1/HPK1 (Homo sapiens, UniProt Q92918); experiment: Large panel kinase profiling; type: biochemical; details: 1 μM test article, 1 mM ATP
T2 construct: AssayQuant Technologies, Inc. (service provider)
In short: as §1

STK33 = biological target: T3, STK33 (Homo sapiens, UniProt Q9BYT3); experiment: Large panel kinase profiling; type: biochemical; details: 1 μM test article, 1 mM ATP
T3 construct: AssayQuant Technologies, Inc. (contract assay)
In short: as §1

T2 sequence (Q92918 whole entry): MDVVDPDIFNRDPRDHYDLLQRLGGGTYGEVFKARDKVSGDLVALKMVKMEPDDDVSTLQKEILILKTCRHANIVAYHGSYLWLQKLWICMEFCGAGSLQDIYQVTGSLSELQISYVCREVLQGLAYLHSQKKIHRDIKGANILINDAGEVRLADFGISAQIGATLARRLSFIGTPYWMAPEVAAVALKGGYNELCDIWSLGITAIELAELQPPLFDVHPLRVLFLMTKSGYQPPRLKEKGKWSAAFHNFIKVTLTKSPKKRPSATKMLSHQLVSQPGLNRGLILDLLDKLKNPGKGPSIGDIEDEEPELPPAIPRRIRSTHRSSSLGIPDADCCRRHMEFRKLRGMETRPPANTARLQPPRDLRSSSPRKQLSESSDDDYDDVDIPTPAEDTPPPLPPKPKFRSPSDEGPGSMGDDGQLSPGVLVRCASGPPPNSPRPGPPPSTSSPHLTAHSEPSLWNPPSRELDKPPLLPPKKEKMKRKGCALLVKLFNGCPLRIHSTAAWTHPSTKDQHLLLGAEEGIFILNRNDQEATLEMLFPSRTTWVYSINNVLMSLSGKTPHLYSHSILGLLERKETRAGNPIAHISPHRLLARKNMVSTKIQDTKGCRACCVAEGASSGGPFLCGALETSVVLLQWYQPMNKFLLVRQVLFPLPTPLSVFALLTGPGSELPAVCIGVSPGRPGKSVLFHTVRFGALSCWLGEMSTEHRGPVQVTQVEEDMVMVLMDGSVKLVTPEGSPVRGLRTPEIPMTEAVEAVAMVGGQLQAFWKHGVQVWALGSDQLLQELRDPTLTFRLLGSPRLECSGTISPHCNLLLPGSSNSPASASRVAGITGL
T3 sequence (Q9BYT3 whole entry, species assumed): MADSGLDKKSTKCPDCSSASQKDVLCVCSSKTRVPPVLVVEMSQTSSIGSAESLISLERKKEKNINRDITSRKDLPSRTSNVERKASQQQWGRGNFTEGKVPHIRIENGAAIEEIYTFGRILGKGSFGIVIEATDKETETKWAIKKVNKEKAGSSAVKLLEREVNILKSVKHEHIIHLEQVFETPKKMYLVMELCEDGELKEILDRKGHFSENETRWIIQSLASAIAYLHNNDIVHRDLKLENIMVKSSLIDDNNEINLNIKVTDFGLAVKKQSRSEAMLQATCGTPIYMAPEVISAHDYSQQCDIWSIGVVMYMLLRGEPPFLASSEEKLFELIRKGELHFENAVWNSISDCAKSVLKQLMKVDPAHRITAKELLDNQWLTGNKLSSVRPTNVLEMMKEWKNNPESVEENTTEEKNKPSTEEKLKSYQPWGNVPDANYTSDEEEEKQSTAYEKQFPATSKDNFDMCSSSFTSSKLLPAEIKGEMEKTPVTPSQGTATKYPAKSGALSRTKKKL
Chain of CAMK1G (Q96NX5 whole entry): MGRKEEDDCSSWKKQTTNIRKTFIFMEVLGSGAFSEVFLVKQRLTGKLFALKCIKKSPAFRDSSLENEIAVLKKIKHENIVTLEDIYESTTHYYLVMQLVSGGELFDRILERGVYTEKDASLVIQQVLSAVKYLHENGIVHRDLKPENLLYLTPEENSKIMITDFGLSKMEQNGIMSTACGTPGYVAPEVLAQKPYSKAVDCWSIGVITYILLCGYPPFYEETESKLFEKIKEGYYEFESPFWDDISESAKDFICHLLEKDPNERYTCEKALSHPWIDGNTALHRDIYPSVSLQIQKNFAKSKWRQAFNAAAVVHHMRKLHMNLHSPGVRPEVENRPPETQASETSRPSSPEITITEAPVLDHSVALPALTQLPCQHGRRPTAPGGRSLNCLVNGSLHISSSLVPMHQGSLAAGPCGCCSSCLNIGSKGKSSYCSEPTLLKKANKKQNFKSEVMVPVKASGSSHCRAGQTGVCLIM
Chain of ABL1 (P00519 whole entry): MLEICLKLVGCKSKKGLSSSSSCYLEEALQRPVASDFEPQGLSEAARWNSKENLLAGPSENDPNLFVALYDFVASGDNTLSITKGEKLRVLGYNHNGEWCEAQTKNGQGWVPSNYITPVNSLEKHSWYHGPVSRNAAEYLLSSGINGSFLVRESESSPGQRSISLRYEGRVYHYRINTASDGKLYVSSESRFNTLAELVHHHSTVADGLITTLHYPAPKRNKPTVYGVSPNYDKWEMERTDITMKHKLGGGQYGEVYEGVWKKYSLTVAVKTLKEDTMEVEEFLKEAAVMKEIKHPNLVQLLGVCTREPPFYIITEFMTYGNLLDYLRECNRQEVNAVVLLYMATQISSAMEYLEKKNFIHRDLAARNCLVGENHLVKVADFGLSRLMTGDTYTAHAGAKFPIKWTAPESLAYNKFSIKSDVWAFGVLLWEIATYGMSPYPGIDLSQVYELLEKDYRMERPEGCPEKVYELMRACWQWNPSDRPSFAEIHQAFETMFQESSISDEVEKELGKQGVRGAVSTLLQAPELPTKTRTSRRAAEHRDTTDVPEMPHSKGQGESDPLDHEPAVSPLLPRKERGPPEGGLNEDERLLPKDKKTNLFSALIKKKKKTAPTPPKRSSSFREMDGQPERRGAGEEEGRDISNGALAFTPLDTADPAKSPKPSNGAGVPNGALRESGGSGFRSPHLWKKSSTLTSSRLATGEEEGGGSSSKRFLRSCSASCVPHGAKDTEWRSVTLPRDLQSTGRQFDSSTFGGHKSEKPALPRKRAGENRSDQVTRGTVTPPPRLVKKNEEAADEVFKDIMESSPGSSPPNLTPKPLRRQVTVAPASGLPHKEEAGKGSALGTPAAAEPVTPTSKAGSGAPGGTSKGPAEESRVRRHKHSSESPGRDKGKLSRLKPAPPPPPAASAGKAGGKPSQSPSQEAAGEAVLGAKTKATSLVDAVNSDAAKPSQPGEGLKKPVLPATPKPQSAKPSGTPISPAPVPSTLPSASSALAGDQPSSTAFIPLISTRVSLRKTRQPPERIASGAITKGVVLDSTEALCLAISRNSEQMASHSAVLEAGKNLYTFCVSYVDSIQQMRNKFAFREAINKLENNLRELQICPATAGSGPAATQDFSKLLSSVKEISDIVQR

SMILES: C=CC(=O)N1CCCC(c2c(F)cc(C(N)=O)c3[nH]c4c(c23)CCCCC4)C1 (single isomer, unassigned) [Compound 5-6]
- IC50 (BTK in RAMOS B cells): < 10 nM
- selectivity in the large panel kinase screen (288 kinases): highly selective
- inhibition at 1 µM (ABL1): -14.6%
- inhibition at 1 µM (CAMK1G): 15.6%
- inhibition at 1 µM (LATS2): 6.3%
- inhibition at 1 µM (MAP4K1/HPK1): -3.2%
- inhibition at 1 µM (STK33): -7.9%

SMILES: C=CC(=O)N1CCC[C@@H](c2c(F)cc(C(N)=O)c3[nH]c4c(c23)CC2(CC4)CC2)C1 [Compound 6-2, (S)-5-(1-acryloylpiperidin-3-yl)-6-fluoro-1,2,4,9-tetrahydrospiro[carbazole-3,1′-cyclopropane]-8-carboxamide]
- IC50 (BTK in RAMOS B cells; Homo sapiens, Ramos): < 10 nM
- selectivity in the large panel kinase screen (288 kinases): highly selective
- inhibition at 1 µM (ABL1): 2.5%
- inhibition at 1 µM (CAMK1G): 19.6%
- inhibition at 1 µM (LATS2): 1.5%
- inhibition at 1 µM (MAP4K1/HPK1): 16.3%
- inhibition at 1 µM (STK33): -27.1%

SMILES: C=CC(=O)N1CCC[C@@H](c2c(F)cc(C(N)=O)c3[nH]c4c(c23)CCC4)C1 [Compound 10-2, (S)-8-(1-acryloylpiperidin-3-yl)-7-fluoro-1,2,3,4-tetrahydrocyclo-penta[b]indole-5-carboxamide]
- IC50 (BTK in RAMOS B cells; Homo sapiens, Ramos): < 10 nM
- selectivity in the large panel kinase screen (288 kinases): highly selective
- inhibition at 1 µM (ABL1): 3.1%
- inhibition at 1 µM (CAMK1G): 9.7%
- inhibition at 1 µM (LATS2): -0.7%
- inhibition at 1 µM (MAP4K1/HPK1): 0.8%
- inhibition at 1 µM (STK33): 20.5%
